According to PubChem BioAssay AID624131 (National Center for Advancing Translational Sciences (NCATS), 2012):

Test system: mouse liver microsomes, LC-MS/MS half-life
Assay: qHTS Assay to Find Inhibitors of T. brucei phosphofructokinase: Mouse Liver Microsome Stability
Conditions: at 1 µM; active compounds read high

O=C(Cc1ccc(Cl)c(Cl)c1)Nc1ccc(S(=O)(=O)Nc2ccon2)cc1
half-life: 3.85 h
